In a melting point compilation (Tetko et al.; mined from patent text by program, amines drawn as free bases though some values may be those of a salt) one finds melting point data, which are given here for 86 molecules.

With `CC(C)(C)c1cc(C(=O)Nc2cnc3ccc(Cl)cc3c2-c2ccccc2)cc(C(C)(C)C)c1O`, the melting point (usually the temperature, or range, at which the solid turns liquid) is 232 to 235 °C.
The value for `Cc1cccc(/C=C/C(=O)Nc2cccc(NC(=N)c3ccccc3)c2)c1` was 179 to 180 °C.
`COC(=O)CCC(=O)NS(=O)(=O)c1ccc([N+](=O)[O-])cc1`: the melting point turned out to be 156 °C.
`CCOC(=O)c1c(OC)c2ccccc2c2nc3ccccc3nc12` yielded a melting point of 155 to 157 °C.
Take `O=C(c1cccc(Cl)c1)N1CCc2cc(S(=O)(=O)N3CC(c4ccccc4)NC3=O)ccc21` (stereo unspecified): the melting point is 132 to 136 °C.
`O=S(CCCc1nc(-c2ccc(F)cc2)c(-c2ccncc2)[nH]1)c1ccccc1` (stereo unspecified) came in with a melting point of 146 to 148 °C.
Turning to `COc1ccc(C(O)CCCC(=O)Nc2ccccc2)cc1` (stereo unspecified), the melting point is 96 to 96.5 °C.
As to `C1=CCN(C(c2ccccc2)c2ccccc2)C1`, the melting point lay within 90 to 91 °C.
For the molecule `COc1ccc(CN2CCC(c3cn(Cc4ccc(Cl)s4)c4cnccc34)CC2)cc1C(=O)O`, the melting point was 125 to 127 °C.
In the case of `CCOC(=O)Nc1cc(COC(=O)Nc2ccc(N(CCCl)CCCl)cc2)cc(Nc2c3ccccc3nc3ccccc23)c1`, the melting point was 178 to 182 °C.
For the molecule `CC12CCC3c4ccc(C(=O)O)cc4CCC3C1CCC2C(=O)c1ccc(Oc2ccccc2)cc1` (stereo unspecified), the melting point was in the range of 224 to 225 °C.
`CC(C)Oc1ccc2c(c1)N(C)C(=O)N(c1ccc(C(F)(F)F)cc1)S2(=O)=O` showed a melting point of 158 to 160 °C.
`CC(Cl)(Cl)C(NC(=O)c1ccc(C(F)(F)F)cc1)NC(=NS(=O)(=O)C(F)(F)F)Nc1cccnc1` (stereo unspecified): the melting point is 214 to 215 °C.
For `CCCCn1c(CCCCN(C(N)=O)c2ccccc2)nc2c(N)nc3ccccc3c21`, the melting point was 222 to 225 °C.
Turning to `CCOc1cc([C@@H](CS(C)(=O)=O)N2C(=O)c3cccc(NC(=O)COC)c3C2=O)ccc1OC`, the melting point lay in the range of 151 to 153 °C.
The value for `CN1C(=O)[C@H](NC(=O)CCCc2cccs2)N=C(c2ccccc2)c2ccccc21` was 170 to 180 °C; that for `COc1cccc(-c2cc(C#N)c(SC)[nH]2)c1` was 112 to 113 °C.
As to `CC(C)NC(=O)c1nn(-c2ccc(Cl)cc2)c(=O)c2c(N)scc12`, the melting point is 197 to 199 °C.
For `COc1ccc(-c2cc(=Nc3c(C)cc(C)cc3C)n(C)c3nnnn23)cc1OC`, the melting point lay in the range of 198 to 200 °C.
`CCOP(=O)(OCC)C1CCc2cc(C(F)(F)F)cc3[nH]c(=O)c(=O)n1c23` (stereo unspecified) showed a melting point of 161 °C.
The molecule `O=C1CCC2=C(CCc3cccc(Br)c32)N1` yielded a melting point of 189 to 190 °C.
For the molecule `O=C1COCC(c2ccc(F)c(F)c2)N1C(=O)NCCCN1CCC(O)(c2ccccc2)CC1` (stereo unspecified), the melting point was 85 to 88 °C.
Molecule `O=C1c2cc(OCc3ccc4ccccc4n3)ccc2OCC1OCc1ccccc1` (stereo unspecified) yielded a melting point of 113 to 115 °C.
In the case of `COc1cccc(OC)c1-c1ccc(C[C@H](NC(=O)c2c(Cl)cc(-c3cnccn3)cc2Cl)C(=O)O)cc1`, the melting point was found to be 146 °C.
`COc1cc(O)ccc1CCCc1ccc(O)c(CC=C(C)C)c1` returned a melting point of 85 to 86 °C.
As to `COc1cc2cc(CO)c(CO)c(-c3ccnc(NN)c3)c2cc1OC`, the melting point fell in the range of 214 to 220 °C.
With `CCOc1ccc(-c2nc(OC(C)=O)c(-c3ccccc3)s2)cc1`, the melting point fell in the range of 149 to 150 °C.
The value for `Cc1cc(C#N)cc(C(=O)Nc2cccc(Cl)n2)n1` was 222 °C; that for `NC(=O)CCCCCOc1ccc(C#Cc2ccc(C(=O)O)cc2)cc1C12CC3CC(CC(C3)C1)C2` was 269 to 270 °C.
The same measure for `Cc1ccc2c(c1)C1CN(CCCC(=O)c3ccc(F)cc3)CCC1N2C` (stereo unspecified): 140 to 145 °C; for `CCOC(=O)C(=NOC)c1csc2cc(F)ccc12`: 84.5 to 86 °C; for `CCCCCCCN(CCO)c1cccc(O)c1`: 45 to 47 °C.
The same measure for `COc1cc(OC)cc(Oc2nc(N)n3nc(-c4ccco4)nc3n2)c1`: 248 to 250 °C; for `C=CCOC(=O)Nc1ccc(N2CCN(N3C=NN(CC(C)(O)c4ccc(Cl)cc4Cl)C3)CC2)cc1` (stereo unspecified): 177 to 179 °C; for `O=S(=O)(F)C=CNc1ccc(Cl)cc1`: 61 to 63 °C.
Turning to `COC(=O)[C@H]1C=C(c2ccccc2)OC(=O)[C@H]1Cc1ccccc1`, the melting point was 105 to 106 °C.
`Cc1ccc(CC2CCN(CCOc3ccc4c(c3)=NC(=S)N=4)CC2)cc1` displayed a melting point of 271 to 273 °C.
For `CCC/C(=C\C=O)c1ccc2c(c1)C(CC)(CC)OC(=O)N2`, the melting point was 173 to 179 °C.
The same measure for `CCOC(=O)C1=Cc2cccc(SC)c2OCC1`: 54 to 55 °C; for `COc1ccc(-c2ccccc2)c2ccc(C)nc12`: 133 to 134 °C; for `O=c1ncc(Cl)cn1CSc1ccc(Cl)cc1`: 191 °C.
The same measure for `CC(O)c1ccccc1N` (stereo unspecified): 50 to 52 °C; for `CSC(Nc1ccc(NC(=O)OC(C)(C)C)cc1)=C(C#N)C#N`: 190 °C.
For the molecule `CC(C)Oc1cc(-n2nc(Cl)n(C(F)F)c2=O)c(Cl)cc1Cl`, the melting point was in the range of 115 to 119 °C.
In the case of `C#CCN(C(=O)c1ccccc1C(F)(F)F)S(=O)(=O)c1cccc(C)c1`, the melting point lay within 81 to 85 °C.
Turning to `Cc1cc(NC(=O)CCC(=O)O)ccc1-n1c(C)nc2ccccc2c1=O`, the melting point is 228 to 230 °C.
In turn, `CN1CCN(C(=O)c2ccc(-c3cc(-c4c[nH]nc4-c4ccccn4)ccn3)cc2)CC1` had a melting point of 142 °C.
`C[C@](O)(COc1ccc(C#N)cc1)C(=O)Nc1ccc(C#N)c(C(F)(F)F)c1` yielded a melting point of 92 to 94 °C.
Molecule `CCOC(=O)C(NC(=O)OCc1ccccc1)C(=O)OCC` came in with a melting point of 36.5 to 37 °C.
The molecule `CC(C)NCC(O)COc1cccc2c1CCCC(=O)N2` (stereo unspecified) yielded a melting point of 143 to 145 °C.
Molecule `C=COC(=O)n1c(S(=O)Cc2ccc(C)cn2)nc2cscc21` (stereo unspecified) gave a melting point of 162 °C.
Turning to `C=CCOc1ccc2ccc(=O)oc2c1`, the melting point was determined as 165 °C.
The same measure for `CCSc1nc2cc(Cl)ccc2s1`: 49 to 50 °C; for `O=C1C(=O)c2ccc(Cl)cc2C2=C1SCC1(CCN(CC(O)Cc3ccccc3)CC1)O2` (stereo unspecified): 92 to 96 °C; for `CC(=O)OC1CSC(Oc2cncc(-c3ccc(F)cc3C)c2)C(OC(C)=O)C1OC(C)=O` (stereo unspecified): 120 °C.
`O=C(Nc1ccccn1)C(CC1CCCC1)c1ccc(C(F)(F)F)c(F)c1` (stereo unspecified) returned a melting point of 40 to 44 °C.
The molecule `Cn1cncc1C(N)(c1ccc([N+](=O)[O-])cc1)c1ccc2c(c1)c(-c1cccc(Cl)c1)cc(=O)n2C` (stereo unspecified) gave a melting point of 258 °C.
The same measure for `COc1nc(NC(=O)NS(=O)(=O)c2ccccc2S(C)(=O)=O)nc(N(C)C)n1`: 192 to 195 °C; for `O=C(CCCCCl)c1ccc2c(c1)Cc1cc(C(=O)CCCCCl)ccc1O2`: 134 to 135 °C; for `CSc1ccc([C@@H](CC2CCCC2)C(=O)O)cc1Cl`: 117 to 119 °C.
`CCOC(=O)c1nnn(Cc2ccccc2)c1N` had a melting point of 153 °C.
The same measure for `CC(=O)NCCC1CCc2ccn3nccc3c21` (stereo unspecified): 100 to 101 °C; for `CCCCC[C@H]1CC[C@H](CCCCc2ccc(C#N)cc2)CC1`: 51 °C; for `CN(C)C(=O)C(C1CCCCC1)n1ccc(-c2ccccc2)n1` (stereo unspecified): 87.5 to 90 °C.
`Cc1cc2cn[nH]c2c(C(=O)NC(C)C)c1NC(=O)c1cc(Br)nn1-c1ncccc1Cl` displayed a melting point of 163 to 166 °C.
`CCC(=O)Oc1ccc(-c2oc3cc(OC)cc(OC(=O)CC)c3c(=O)c2OC)cc1OC` displayed a melting point of 106 to 107 °C.
`CCC1Nc2cc(C)cc(C)c2N1c1ccc(CCNC(=O)NS(=O)(=O)c2ccc(C)cc2)cc1` (stereo unspecified) displayed a melting point of 108 to 112 °C.
In turn, `CC1(c2cccc(C3(O)CCCCC3)c2)OCCO1` showed a melting point of 55 to 57 °C.
For the molecule `CCCCCCCN(O)C(=O)N(C)C`, the melting point was 30 to 31 °C.
For `O=C(NC(Cc1ccc(OCc2ccccc2)cc1)C(=O)O)c1cn2cc(-c3ccccc3Cl)ccc2n1` (stereo unspecified), the melting point came to 228 °C.
In turn, `CCS(=O)(=O)N(C)C1c2cc(Cl)cc(Cl)c2OC(C)(C)C1OC(C)=O` (stereo unspecified) came in with a melting point of 136 to 137 °C.
The value for `CS(=O)(=O)c1ccc(C(=O)Nc2ccc(-n3nc(C(F)(F)F)cc3C(F)(F)F)cc2)cc1` was 216 to 218 °C.
In turn, `CC(C)(C)NS(=O)(=O)c1cc(C(=O)O)ccc1C(=O)O` returned a melting point of 210 to 213 °C.
In the case of `O=C(O)c1ccc(-c2nc(-c3cc(C(F)(F)F)cc(C(F)(F)F)c3)co2)cc1`, the melting point lay in the range of 277 to 279 °C.
`CCOc1nc(NCc2ccc(C)o2)nc(Nc2ccc(O)cc2)n1` had a melting point of 40 to 42 °C.
The value for `COc1ccccc1OCC(O)CN1CCCC(Cn2c(=O)[nH]c3ccccc32)C1` (stereo unspecified) was 158 °C.
In turn, `CCOC(=O)c1cn(-c2ccc(F)cc2F)c2nc(OS(=O)(=O)c3ccccc3[N+](=O)[O-])c(F)cc2c1=O` displayed a melting point of 157 to 160 °C.
`CC1Cc2cc(S(=O)(=O)N3CCN(c4cccc(Cl)c4)CC3)ccc2N1C(=O)CCC(=O)O` (stereo unspecified): the melting point was 210 °C.
For `O=C(NCO)c1cncc([N+](=O)[O-])c1`, the melting point fell in the range of 145 to 146 °C.
Take `O=C(NCc1ccc(Cl)cc1)c1nnc2ccc(I)cc2c1O`: the melting point lay within 307 to 308 °C.
`NC(=O)CCSSCCC(N)=O` came in with a melting point of 100 to 101 °C.
The molecule `Cc1oc(C2=NOC(c3cc(Cl)cc(Cl)c3)(C(F)(F)F)C2)cc1C(=O)NCC(=O)NCC(F)(F)F` (stereo unspecified) showed a melting point of 172 to 174 °C.
On to `O=C1C2=CC=CCC2C(O)N1CCN1CCC(c2noc3cc(F)ccc23)CC1` (stereo unspecified), for which the melting point lay within 172 to 173 °C.
Regarding `Cc1nc(-c2cccc(CN3C(=O)C4(COc5cc6c(cc54)OCCO6)c4ccccc43)c2)no1` (stereo unspecified), the melting point lay within 90 to 95 °C.
`CC12CC(N3CCC(O)CC3)C(O)CC1CCC1C2CCC2(C)C(O)C(N3CCC4(CC3)OCCO4)CC12` (stereo unspecified): the melting point was 199 to 201 °C.
As to `CC1CC(C)CN(C(=O)c2ccc([N+](=O)[O-])cc2)C1` (stereo unspecified), the melting point lay within 120 to 125 °C.
